Measured values taken from PubChem BioAssay (NCI).
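Values below derive from 48-hour exposures of cells grown in 96-well plates, with endpoints linearly interpolated between the two concentrations bracketing the appropriate inhibition level. TGI: total growth inhibition.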

How the values were obtained:
Experiment in all cases: NCI tumour cell line growth inhibition, 48 h
786-0 renal = system: 786-0 renal
A498 renal = system: A498 renal
A549 NSCLC = system: A549 NSCLC
ACHN renal = system: ACHN renal
BT-549 breast = system: BT-549 breast
CAKI-1 renal = system: CAKI-1 renal
CCRF-CEM leukemia = system: CCRF-CEM leukemia
COLO 205 colon = system: COLO 205 colon
DU-145 prostate = system: DU-145 prostate
EKVX NSCLC = system: EKVX NSCLC
HCC-2998 colon = system: HCC-2998 colon
HCT-116 colon = system: HCT-116 colon
HCT-15 colon = system: HCT-15 colon
HL-60(TB) leukemia = system: HL-60(TB) leukemia
HOP-62 NSCLC = system: HOP-62 NSCLC
HOP-92 NSCLC = system: HOP-92 NSCLC
HS 578T breast = system: HS 578T breast
HT29 colon = system: HT29 colon
IGROV1 ovarian = system: IGROV1 ovarian
K-562 leukemia = system: K-562 leukemia
KM12 colon = system: KM12 colon
LOX IMVI melanoma = system: LOX IMVI melanoma
M14 melanoma = system: M14 melanoma
MALME-3M melanoma = system: MALME-3M melanoma
MCF7 breast = system: MCF7 breast
MDA-MB-231 breast = system: MDA-MB-231 breast
MDA-N = system: MDA-N
MOLT-4 leukemia = system: MOLT-4 leukemia
NCI-H226 lung = system: NCI-H226 lung
NCI-H23 lung = system: NCI-H23 lung
NCI-H460 lung = system: NCI-H460 lung
NCI-H522 lung = system: NCI-H522 lung
NCI/ADR-RES ovarian = system: NCI/ADR-RES ovarian
OVCAR-3 ovarian = system: OVCAR-3 ovarian
OVCAR-4 ovarian = system: OVCAR-4 ovarian
OVCAR-5 ovarian = system: OVCAR-5 ovarian
OVCAR-8 ovarian = system: OVCAR-8 ovarian
PC-3 prostate = system: PC-3 prostate
RPMI-8226 leukemia = system: RPMI-8226 leukemia
RXF 393 renal = system: RXF 393 renal
SF-268 CNS = system: SF-268 CNS
SF-295 CNS = system: SF-295 CNS
SF-539 CNS = system: SF-539 CNS
SK-MEL-2 melanoma = system: SK-MEL-2 melanoma
SK-MEL-28 melanoma = system: SK-MEL-28 melanoma
SK-MEL-5 melanoma = system: SK-MEL-5 melanoma
SK-OV-3 ovarian = system: SK-OV-3 ovarian
SN12C renal = system: SN12C renal
SNB-19 CNS = system: SNB-19 CNS
SNB-75 CNS = system: SNB-75 CNS
SR leukemia = system: SR leukemia
SW-620 colon = system: SW-620 colon
T-47D breast = system: T-47D breast
TK-10 renal = system: TK-10 renal
U251 CNS = system: U251 CNS
UACC-257 melanoma = system: UACC-257 melanoma
UACC-62 melanoma = system: UACC-62 melanoma
UO-31 renal = system: UO-31 renal
MDA-MB-435 = system: MDA-MB-435

Structure (SMILES): COc1cc(C2c3cc4c(cc3OC(NNC(N)=O)C2C)OCO4)cc(OC)c1O (stereo not given)
- TGI (786-0 renal): > 80.1 µM
- TGI (A498 renal): 35.7 µM
- TGI (A549 NSCLC): > 80.9 µM
- TGI (ACHN renal): > 100 µM
- TGI (BT-549 breast): > 100 µM
- TGI (CAKI-1 renal): > 100 µM
- TGI (CCRF-CEM leukemia): > 100 µM
- TGI (COLO 205 colon): 9.4 µM
- TGI (DU-145 prostate): 33.7 µM
- TGI (EKVX NSCLC): > 100 µM
- TGI (HCC-2998 colon): 6.5 µM
- TGI (HCT-116 colon): > 56.5 µM
- TGI (HCT-15 colon): > 100 µM
- TGI (HL-60(TB) leukemia): 7.84 µM
- TGI (HOP-62 NSCLC): > 100 µM
- TGI (HOP-92 NSCLC): > 90.2 µM
- TGI (HS 578T breast): > 100 µM
- TGI (HT29 colon): > 56.8 µM
- TGI (IGROV1 ovarian): > 100 µM
- TGI (K-562 leukemia): > 100 µM
- TGI (KM12 colon): > 69.9 µM
- TGI (LOX IMVI melanoma): > 100 µM
- TGI (M14 melanoma): > 42.6 µM
- TGI (MALME-3M melanoma): > 100 µM
- TGI (MCF7 breast): > 55 µM
- TGI (MDA-MB-231 breast): > 56.9 µM
- TGI (MDA-N): 1.02 µM
- TGI (MOLT-4 leukemia): > 100 µM
- TGI (NCI-H226 lung): 27.1 µM
- TGI (NCI-H23 lung): > 100 µM
- TGI (NCI-H460 lung): > 100 µM
- TGI (NCI-H522 lung): 10.5 µM
- TGI (NCI/ADR-RES ovarian): > 76.1 µM
- TGI (OVCAR-3 ovarian): 10.1 µM
- TGI (OVCAR-4 ovarian): > 100 µM
- TGI (OVCAR-5 ovarian): > 100 µM
- TGI (OVCAR-8 ovarian): > 100 µM
- TGI (PC-3 prostate): > 100 µM
- TGI (RPMI-8226 leukemia): > 31.8 µM
- TGI (RXF 393 renal): > 20.9 µM
- TGI (SF-268 CNS): > 100 µM
- TGI (SF-295 CNS): > 85.7 µM
- TGI (SF-539 CNS): 4.71 µM
- TGI (SK-MEL-2 melanoma): > 74.4 µM
- TGI (SK-MEL-28 melanoma): > 100 µM
- TGI (SK-MEL-5 melanoma): 18 µM
- TGI (SK-OV-3 ovarian): > 51.5 µM
- TGI (SN12C renal): > 90.4 µM
- TGI (SNB-19 CNS): > 100 µM
- TGI (SNB-75 CNS): > 100 µM
- TGI (SR leukemia): > 100 µM
- TGI (SW-620 colon): > 100 µM
- TGI (T-47D breast): > 100 µM
- TGI (TK-10 renal): > 73.8 µM
- TGI (U251 CNS): > 53.1 µM
- TGI (UACC-257 melanoma): > 100 µM
- TGI (UACC-62 melanoma): > 100 µM
- TGI (UO-31 renal): > 100 µM

Structure (SMILES): CCOC(=O)C(NC(=O)CC)(Nc1cc(C)on1)C(F)(F)F (stereo not given)
- TGI (786-0 renal): > 100 µM
- TGI (A549 NSCLC): > 100 µM
- TGI (ACHN renal): > 100 µM
- TGI (BT-549 breast): > 100 µM
- TGI (CCRF-CEM leukemia): > 100 µM
- TGI (COLO 205 colon): > 100 µM
- TGI (EKVX NSCLC): > 100 µM
- TGI (HCC-2998 colon): > 100 µM
- TGI (HCT-116 colon): > 100 µM
- TGI (HCT-15 colon): > 100 µM
- TGI (HL-60(TB) leukemia): > 100 µM
- TGI (HS 578T breast): > 100 µM
- TGI (HT29 colon): > 100 µM
- TGI (IGROV1 ovarian): > 100 µM
- TGI (K-562 leukemia): > 100 µM
- TGI (LOX IMVI melanoma): > 100 µM
- TGI (M14 melanoma): > 100 µM
- TGI (MDA-MB-435): > 100 µM
- TGI (MDA-N): > 100 µM
- TGI (MOLT-4 leukemia): > 100 µM
- TGI (NCI-H23 lung): > 100 µM
- TGI (NCI/ADR-RES ovarian): > 100 µM
- TGI (OVCAR-5 ovarian): > 100 µM
- TGI (OVCAR-8 ovarian): > 100 µM
- TGI (PC-3 prostate): > 100 µM
- TGI (RPMI-8226 leukemia): > 100 µM
- TGI (RXF 393 renal): > 100 µM
- TGI (SF-268 CNS): > 100 µM
- TGI (SF-539 CNS): > 100 µM
- TGI (SK-MEL-2 melanoma): > 100 µM
- TGI (SK-MEL-28 melanoma): > 100 µM
- TGI (SK-MEL-5 melanoma): > 100 µM
- TGI (SN12C renal): > 100 µM
- TGI (SNB-19 CNS): > 100 µM
- TGI (SNB-75 CNS): > 100 µM
- TGI (SR leukemia): > 100 µM
- TGI (SW-620 colon): > 100 µM
- TGI (T-47D breast): > 100 µM
- TGI (TK-10 renal): > 100 µM
- TGI (U251 CNS): > 100 µM
- TGI (UACC-257 melanoma): > 100 µM
- TGI (UO-31 renal): > 100 µM
